pIC50: −log10 of the molar value. Where “and” joins values, the source holds several entries; their conditions need not be identical. Equal entries are not always repeated. Entries after “also recorded” stand apart in the source; their conditions may differ. Marks after values point to notes of the source that are not given here.
Experiments:
KOPN8 = test: Kinase inhibitor drug combination screen (MTS, Bliss-independence analysis)
Excerpt: (§1) Hits were ranked by the observed inhibition over the Bliss independence prediction.
(§2) Combinations with positive values for this Bliss difference were considered synergistic, values near zero, additive, and negative values, antagonistic.

RCH-ACV = test: as above
Excerpt: as §1, §2

[1] = tested on: MOLM14, Kasumi-1, KOPN8 and RCH-ACV leukemia cell lines; test: Kinase inhibitor drug combination screen, summary over the four leukemia cell lines; conditions: for No. Cell Lines: cell lines synergistically inhibited (>10% over Bliss) by drug 1 combined with AS and/or ART-838
Excerpt: as §1, §2

MOLM14 cells [2] = test: alamarBlue cytotoxicity assay, single-drug IC50, 48 h; assay type: cell-based, human; conditions: MOLM14 (AML) cell line
Procedure: Peripheral wells were filled with sterile water to minimize the effects of evaporation. […] Results were normalized to cells treated with vehicle (≦0.5% DMSO) alone. IC50s were calculated using CompuSyn software and represent the means of at least three experiments performed in triplicate.

MOLM14 cells [3] = test: ROS - mitochondrial superoxide (MitoSOX flow cytometry); assay type: cell-based, human
Procedure: FIGS. 4A-4D. […] CIs were computed as described above. CI<1 indicates synergy, CI=1, additivity, CI>1, antagonism. […] Cells were then loaded with 5 μM MitoSox for 30 min, washed, and analyzed by flow cytometry for MitoSox fluorescence (indicating mitochondrial superoxide) in the FL2 channel. […] Error bars represent the SEM of three independent experiments.

MOLM14 = test: Kinase inhibitor drug combination screen (MTS, Bliss-independence analysis)
Excerpt: as §1, §2

KOPN8 cells = test: alamarBlue cytotoxicity assay, single-drug IC50, 48 h; assay type: cell-based; conditions: Homo sapiens, KOPN-8
Procedure: Cytotoxicity was assessed using alamarBlue assays (Life Technologies, Grand Island, N.Y.; used for IC50 determinations and all drug combinations except the drug combination screen (method described separately below)) or Trypan Blue dye exclusion (Life Technologies, Grand Island, N.Y.; used only for experiments using inhibitors that could interfere with alamarBlue assay performance (NAC, Tiron, DFO)).
Cell lines were seeded in 96-well tissue culture plates at 10^4 cells per well (myeloid leukemia lines) or 2×10^4 cells per well (lymphoid leukemia lines) in culture medium, followed by addition of drugs at the indicated concentrations. 2-4 wells per plate containing media-only were included for background subtraction. Peripheral wells were filled with sterile water to minimize the effects of evaporation.
MOLM14 cells were treated with each of these drugs, alone and in combination with ART-838 or AS at an equipotency ratio based on the IC50s for each drug (Table 1). In Table 1, KOPN8 and MOLM14 cell lines were treated with a range of concentrations of each drug for 48 h then cytotoxicity was measured via alamarBlue assay. Results were normalized to cells treated with vehicle (≦0.5% DMSO) alone. IC50s were calculated using CompuSyn software and represent the means of at least three experiments performed in triplicate. Addition of ART-838 or AS enhanced the cytotoxicity of all six tested drugs across a range of concentrations (FIG. 2). Drug interactions were typically most favorable (more additive/synergistic or less antagonistic) at higher doses.

[4] = KOPN8, Drug 2 = ART-838 at approximate IC50, 48 h
[5] = Drug 2 = ART-838 at approximate IC50, 48 h
[6] = MOLM14, Drug 2 = ART-838 at approximate IC50, 48 h
[7] = Drug 2 = AS at approximate IC50, 48 h
[8] = MOLM14, Drug 2 = AS at approximate IC50, 48 h
[9] = KOPN8, Drug 2 = AS at approximate IC50, 48 h

| Compound | fractional inhibition over Bliss prediction (KOPN8; [4]) | No. Cell Lines [1] | fractional inhibition over Bliss prediction (MOLM14; [6]) | fractional inhibition over Bliss prediction (MOLM14; [8]) | fractional inhibition over Bliss prediction (KOPN8; [9]) | also measured |
| --- | --- | --- | --- | --- | --- | --- |
| O=C(Nc1cccc(C(F)(F)F)c1)Nc1cc(S(=O)(=O)NC2CC2)ccc1-c1ccsc1 [AGI6780] | KOPN8 (0.17), | 2/4** |  |  |  | fractional inhibition over Bliss prediction (RCH-ACV; [5]): RCH-ACV (0.11) |
| C[C@@H]1CCC2[C@@H](C)[C@@H](CC(COP(=O)(Oc3ccccc3)Oc3ccccc3)C[C@H]3O[C@@H]4O[C@@]5(C)CCC6[C@H](C)CCC([C@H]3C)[C@]64OO5)O[C@@H]3O[C@@]4(C)CCC1[C@@]23OO4 (stereo partly drawn) [ART-838, artemisinin-derived trioxane diphenylphosphate dimer 838] |  |  |  |  |  | pIC50 (MOLM14 cells [2]): 7.60; mitochondrial superoxide (MitoSox MFI) (MOLM14 cells [3]; MOLM14, drug alone, 2.25x IC50, 16 h): increased; also recorded: induced superoxide to greater levels than AS |
| CC(C)C[C@H](NC(=O)[C@H](Cc1ccccc1)NC(=O)c1cnccn1)B(O)O [Bortezomib] |  | 2/4 |  |  |  |  |
| Cc1c[nH]c(-c2cnc(NCCNc3ccc(C#N)cn3)nc2-c2ccc(Cl)cc2Cl)n1 [CHIR-99021] |  | 2/4 | MOLM14 (0.53) |  |  | fractional inhibition over Bliss prediction (RCH-ACV; [7]): RCH-ACV (0.15) |
| C[C@@H](Oc1cc(-c2cnn(C3CCNCC3)c2)cnc1N)c1c(Cl)ccc(F)c1Cl [Crizotinib] | KOPN8 (0.12) | 2/4** |  |  |  | fractional inhibition over Bliss prediction (RCH-ACV; [7]): RCH-ACV (0.13) |
| COc1cc([C@@H]2c3cc4c(cc3[C@@H](O[C@@H]3O[C@@H]5CO[C@@H](C)O[C@H]5[C@H](O)[C@H]3O)[C@H]3COC(=O)[C@H]23)OCO4)cc(OC)c1O [ETO, etoposide] |  |  |  |  |  | pIC50 (KOPN8 cells): 6.82; effect on ART-838-induced superoxide generation (MOLM14 cells [3]; MOLM14, combined with ART-838, 2.25x IC50s, 16 h): further enhanced; effect on AS-induced superoxide generation (MOLM14 cells [3]; MOLM14, combined with AS, 2.25x IC50s, 16 h): further enhanced |
| C#Cc1cccc(Nc2ncnc3cc(OCCOC)c(OCCOC)cc23)c1 [Erlotinib] |  | 2/4 |  |  |  |  |
| CCc1cc(Nc2nccc(-c3c(-c4ccc(OC)c(C(=O)Nc5c(F)cccc5F)c4)nc4ccccn34)n2)c(OC)cc1N1CCC(N2CCN(S(C)(=O)=O)CC2)CC1 [GSK-1904529A] | 0.24 and 0.16 | 3/4 | 0.57 and 0.37 | 0.30 and 0.27 | KOPN8 (0.18), | fractional inhibition over Bliss prediction (RCH-ACV; [5]): RCH-ACV (0.14); fractional inhibition over Bliss prediction (RCH-ACV; [7]): RCH-ACV (0.20) |
| COc1ccc(COc2ccc(Cc3cnc(N)nc3N)cc2OC)cc1 [GW-2580] | KOPN8 (0.19) | 2/4 | MOLM14 (0.19), | 0.25 and 0.15 | KOPN8 (0.15) |  |
| O=S(=O)(NCCNC/C=C/c1ccc(Br)cc1)c1cccc2cnccc12 [H-89] | KOPN8 (0.10) | 2/4 | MOLM14 (0.13), | MOLM14 (0.21) |  |  |
| Cc1ccc(NC(=O)c2ccc(CN3CCN(C)CC3)cc2)cc1Nc1nccc(-c2cccnc2)n1 [Imatinib] |  | 2/4 |  |  |  |  |
| Cn1cc(-c2ccc3nnc(C(F)(F)c4ccc5ncccc5c4)n3n2)cn1 [JNJ-38877605] | KOPN8 (0.19) | 2/4 | MOLM14 (0.17), | MOLM14 (0.27), | KOPN8 (0.12) |  |
| CS(=O)(=O)CCNCc1ccc(-c2ccc3ncnc(Nc4ccc(OCc5cccc(F)c5)c(Cl)c4)c3c2)o1 [Lapatinib] |  | 2/4** |  |  |  |  |
| Cc1ccc(F)c(NC(=O)Nc2ccc(-c3cccc4[nH]nc(N)c34)cc2)c1 [Linifanib] | 0.19 |  |  |  | 0.20 |  |
| CO[C@@H]1[C@H](N(C)C(=O)c2ccccc2)C[C@H]2O[C@]1(C)n1c3ccccc3c3c4c(c5c6ccccc6n2c5c31)C(=O)NC4 [MID, midostaurin] |  |  |  |  |  | pIC50 (KOPN8 cells): 6.68 |
| O=C(O)c1ccc(Nc2ncc3c(n2)-c2ccc(Cl)cc2C(c2c(F)cccc2F)=NC3)cc1 [MLN8054] | KOPN8 (0.11) | 2/4 | MOLM14 (0.15), |  |  |  |
| CC1(C)CNc2cc(NC(=O)c3cccnc3NCc3ccncc3)ccc21 [Motesanib] | 0.15 |  |  |  | 0.11 |  |

| Compound | fractional inhibition over Bliss prediction (KOPN8; [4]) | No. Cell Lines [1] | fractional inhibition over Bliss prediction (MOLM14; [6]) | fractional inhibition over Bliss prediction (MOLM14; [8]) | fractional inhibition over Bliss prediction (KOPN8; [9]) | also measured |
| --- | --- | --- | --- | --- | --- | --- |
| Nc1ncnc2c1c(-c1cccc(OCc3ccccc3)c1)cn2C1CC(CN2CCCC2)C1 (stereo not drawn) [NVP-ADW742] |  | 2/4 | MOLM14 (0.17), | MOLM14 (0.20) |  |  |
| CCCCCCCCCCCCc1ccc(S(=O)(=O)Nc2nncs2)cc1 [PHT-427] |  |  | 0.20 | 0.26 |  |  |
| Cc1ccc(Nc2nccc(N(C)c3ccc4c(C)n(C)nc4c3)n2)cc1S(N)(=O)=O [Pazopanib] |  | 3/4 |  |  |  |  |
| CS(=O)(=O)N1CCN(Cc2cc3nc(-c4cccc5[nH]ncc45)nc(N4CCOCC4)c3s2)CC1 [Pictilisib] | 0.14 |  |  |  | 0.12 |  |
| Cc1ccc(S(=O)(=O)OCC(=O)Nc2ccc(C(=O)O)c(O)c2)cc1 [S31-201] | KOPN8 (0.23) | 2/4 | MOLM14 (0.18), | MOLM14 (0.30), | KOPN8 (0.17) |  |
| NC(=O)c1ccc(-c2nc(-c3ccc4c(c3)OCO4)c(-c3ccccn3)[nH]2)cc1 [SB-431542] |  |  | 0.11 | 0.16 |  |  |
| Cc1[nH]c(/C=C2\C(=O)Nc3ccc(S(=O)(=O)N(C)c4cccc(Cl)c4)cc32)c(C)c1C(=O)N1CCN(C)CC1 [SU11274] | KOPN8 (0.39) | 2/4 | MOLM14 (0.17), | MOLM14 (0.28), | KOPN8 (0.17) |  |
| CN1CCN(CCOc2cc(OC3CCOCC3)c3c(Nc4c(Cl)ccc5c4OCO5)ncnc3c2)CC1 [Saracatinib] |  |  | 0.21 | 0.33 |  |  |
| Cn1cnc2c(F)c(Nc3ccc(Br)cc3Cl)c(C(=O)NOCCO)cc21 [Selumetinib] | KOPN8 (0.19) | 2/4 | MOLM14 (0.15), |  |  |  |
| COc1cc2nccc(Oc3ccc(NC(=O)Nc4cc(C)on4)c(Cl)c3)c2cc1OC [Tivozanib] | KOPN8 (0.22) | 2/4 |  | MOLM14 (0.20), | KOPN8 (0.11) |  |
| CC(=O)Nc1cccc(-n2c(=O)n(C3CC3)c(=O)c3c(Nc4ccc(I)cc4F)n(C)c(=O)c(C)c32)c1 [Trametinib] | 0.20 |  |  |  | 0.20 |  |
| O=c1ncn2nc(Sc3ccc(F)cc3F)ccc2c1-c1c(Cl)cccc1Cl [VX-745] | KOPN8 (0.14) | 2/4 |  | MOLM14 (0.11) |  |  |
| Clc1ccc(Nc2nnc(Cc3ccncc3)c3ccccc23)cc1 [Vatalanib] | 0.12 |  |  |  | 0.15 |  |
| Oc1nc(-c2ccc(C(F)(F)F)cc2)nc2c1CSCC2 [XAV-939] | KOPN8 (0.18) | 3/4 | MOLM14 (0.17), |  |  | fractional inhibition over Bliss prediction (RCH-ACV; [7]): RCH-ACV (0.22) |
| ABT-263 |  |  |  |  |  | synergy with AS or ART-838 ([1]; screens in four human leukemia cell lines): Particularly strong synergy |
| JAK Inhibitor I |  |  | 0.15 | 0.44 |  |  |

— patent US9918972B2, “Treatment of leukemia with artemisinin derivatives and combinations with other antineoplastic agents” (UNIVERSITY OF MARYLAND, BALTIMORE, priority 2014, dated 2018)
